Drawing on ChEMBL document CHEMBL1138157, “Immuno-suppressive effect of blocking the CD28 signaling pathway in T-cells by an active component of Echinacea found by a novel pharmaceutical screening method” (2006), this text covers Inhibition and Activity for one compound.

Active and inactive are the calls of the source. The rule behind the calls is not given here.

Assay [1] has as its system Jurkat. In words: Inhibition of anti-CD3 plus anti-CD28-induced IL2 secretion in Jurkat cells. In kind it is functional, Homo sapiens.
The test system of assay [2] is Jurkat. In words: Inhibition of PMA plus ionomycin-induced IL2 secretion in Jurkat cells. In kind it is functional, cell-based. Conditions: Homo sapiens.
In assay [3] the test system is Jurkat. The assay can be described thus: Cytotoxic activity against Jurkat cells upto 500 ug/mL by MTT assay. In kind it is functional, cell-based. Conditions: Homo sapiens. For orientation: Tetrazolium assays rely on reduction of a dye to a coloured formazan, in cell work by metabolically active cells.

In general, Inhibition refers to the change of the read-out against control, counted positive when it falls. On to `O=C(/C=C/c1ccc(O)c(O)c1)O[C@@H]1C[C@@](OC(=O)/C=C/c2ccc(O)c(O)c2)(C(=O)O)C[C@@H](O)[C@@H]1O` [CYNARIN], for which the Inhibition in assay [1] is on record as -53%. Moreover, the outcome in assay [2] was inactive. Also, the Activity entry in assay [3] was “Non-toxic”.
